Results published in paper PMC7617285, “Dehydrogenase versus oxidase function: the interplay between substrate binding and flavin microenvironment” (ACS catalysis, 2025).
One block for each compound: values may come before it.

Tests used:
[1] = target: T1, VAD (vanillyl-alcohol dehydrogenase from Marinicaulis flavus) (Hyphococcus luteus, UniProt A0A2S7K3M2, P151L); test: X-ray structure of soaked crystal; type: binding; settings: 1 mM eugenol soak, 2 min; active site, flavin si side
T1 construct: gene CW354_13745; SUMO tag cleaved for crystals; covalent FAD on H387; dimer
T1 sequence (A0A2S7K3M2 entry or part of it P151L): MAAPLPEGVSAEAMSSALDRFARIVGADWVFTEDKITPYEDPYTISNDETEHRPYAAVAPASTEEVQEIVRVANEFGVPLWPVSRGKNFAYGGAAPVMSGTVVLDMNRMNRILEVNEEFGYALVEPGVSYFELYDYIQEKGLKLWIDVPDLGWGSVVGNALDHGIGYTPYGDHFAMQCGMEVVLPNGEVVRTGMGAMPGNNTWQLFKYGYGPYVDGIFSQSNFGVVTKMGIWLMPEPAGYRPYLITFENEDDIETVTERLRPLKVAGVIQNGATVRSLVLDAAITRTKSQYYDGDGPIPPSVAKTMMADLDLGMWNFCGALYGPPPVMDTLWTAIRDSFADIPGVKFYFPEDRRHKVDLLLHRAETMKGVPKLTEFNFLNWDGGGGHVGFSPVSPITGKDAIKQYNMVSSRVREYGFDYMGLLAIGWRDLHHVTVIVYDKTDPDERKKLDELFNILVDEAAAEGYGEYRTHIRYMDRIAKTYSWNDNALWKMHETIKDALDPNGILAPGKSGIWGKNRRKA

[2] = target: T2, nsVAO (vanillyl-alcohol oxidase from Novosphingobium sp.) (Novosphingobium sp., UniProt A0A3N9RU39); test: X-ray structure; type: binding; settings: non-covalently bound FAD
T2 construct: gene EH199_11270; SUMO tag cleaved for crystals; non-covalent FAD
T2 sequence (A0A3N9RU39 1-543): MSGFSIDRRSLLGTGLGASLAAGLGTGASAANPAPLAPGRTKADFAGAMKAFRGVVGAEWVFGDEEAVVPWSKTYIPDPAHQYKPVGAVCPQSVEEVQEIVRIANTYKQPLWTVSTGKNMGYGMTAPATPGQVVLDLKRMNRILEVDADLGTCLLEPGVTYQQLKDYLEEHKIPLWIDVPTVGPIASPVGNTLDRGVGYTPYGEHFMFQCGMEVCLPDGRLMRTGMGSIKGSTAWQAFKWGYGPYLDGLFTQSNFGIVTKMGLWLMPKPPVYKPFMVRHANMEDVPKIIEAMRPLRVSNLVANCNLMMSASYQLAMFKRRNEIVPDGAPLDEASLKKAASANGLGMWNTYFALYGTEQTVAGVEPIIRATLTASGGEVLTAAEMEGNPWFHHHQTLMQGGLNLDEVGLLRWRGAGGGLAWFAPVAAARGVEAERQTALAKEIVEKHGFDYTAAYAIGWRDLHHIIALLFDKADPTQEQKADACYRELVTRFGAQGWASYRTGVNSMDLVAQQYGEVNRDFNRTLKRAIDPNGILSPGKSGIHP

[3] = target: T3, VAD (vanillyl-alcohol dehydrogenase from Marinicaulis flavus) (Hyphococcus luteus, UniProt A0A2S7K3M2); test: X-ray structure; type: binding; settings: covalent (H387)
T3 construct: gene CW354_13745; SUMO tag cleaved for crystals; covalent FAD on H387; dimer
T3 sequence (A0A2S7K3M2 1-521): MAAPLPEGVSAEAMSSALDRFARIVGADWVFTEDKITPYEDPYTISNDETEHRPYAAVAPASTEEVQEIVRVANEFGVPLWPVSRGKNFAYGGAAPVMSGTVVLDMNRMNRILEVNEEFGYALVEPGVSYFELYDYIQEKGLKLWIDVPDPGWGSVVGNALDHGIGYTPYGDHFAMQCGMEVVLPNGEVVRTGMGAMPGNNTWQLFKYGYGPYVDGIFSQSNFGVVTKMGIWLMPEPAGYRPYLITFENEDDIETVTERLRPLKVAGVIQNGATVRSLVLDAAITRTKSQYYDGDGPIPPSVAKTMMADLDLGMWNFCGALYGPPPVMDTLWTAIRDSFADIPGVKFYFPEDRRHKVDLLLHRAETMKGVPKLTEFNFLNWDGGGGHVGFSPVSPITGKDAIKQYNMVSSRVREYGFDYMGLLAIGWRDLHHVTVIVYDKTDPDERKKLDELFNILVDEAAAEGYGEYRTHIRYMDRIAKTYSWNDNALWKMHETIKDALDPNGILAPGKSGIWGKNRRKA

[4] = target: T2, nsVAO (vanillyl-alcohol oxidase from Novosphingobium sp.); test: X-ray structure of soaked crystal; type: binding; settings: […] vanillyl alcohol soak, […] min; active site
[5] = target: T1, VAD (vanillyl-alcohol dehydrogenase from Marinicaulis flavus); test: anaerobic stopped-flow reductive half-reaction; type: biochemical; settings: 25 °C, 50 mM potassium phosphate pH 7.5, 150 mM NaCl, oxidized enzyme
Description: (§1) anaerobic stopped-flow reductive half-reaction on VAD (vanillyl-alcohol dehydrogenase from Marinicaulis flavus)

[6] = target: T3, VAD (vanillyl-alcohol dehydrogenase from Marinicaulis flavus); test: anaerobic stopped-flow reductive half-reaction; type: biochemical; settings: 25 °C, 50 mM potassium phosphate pH 7.5, 150 mM NaCl, oxidized enzyme
Description: as §1

SMILES: C=CCc1ccc(O)c(OC)c1 [Eugenol]
X-ray structure of soaked crystal [1]: P151L VAD-eugenol, wild type nsVAO-vanillyl alcohol and T181D nsVAO-vanillin complexes were prepared by soaking crystals

SMILES: Cc1cc2nc3c(=O)[nH]c(=O)nc-3n(C[C@H](O)[C@H](O)[C@H](O)COP(=O)(O)OP(=O)(O)OC[C@H]3O[C@@H](n4cnc5c(N)ncnc54)[C@H](O)[C@@H]3O)c2cc1C [FAD]
X-ray structure [2]: Its crystal structure confirms that FAD is non-covalently bound
X-ray structure [3]: FAD carbons are in yellow, wild-type carbons in orange

Kd [5]: 1060 ± 80 µM
Kd [6]: 24.2 ± 3.3 µM
SMILES: COc1cc(CO)ccc1O [Vanillyl alcohol]
X-ray structure of soaked crystal [4]: Vanillyl alcohol bound to wild type nsVAO is shown with blue carbons.
